From the NIST ThermoML archive (doi:10.1016/j.jct.2018.10.006)

Assay: molar heat capacity at constant pressure
Conditions: 101.33 kPa, Crystal 2

O=P([O-])([O-])[O-].[Cs+].[Ni+2] [cesium nickel monophosphate]
Conditions | molar heat capacity at constant pressure [J/K/mol]
5 K, Small (less than 1 g) adiabatic calorimetry | 0.898
6 K, Small (less than 1 g) adiabatic calorimetry | 1.272
6.21 K, Small (less than 1 g) adiabatic calorimetry | 1.255
6.51 K, Small (less than 1 g) adiabatic calorimetry | 1.413
6.82 K, Small (less than 1 g) adiabatic calorimetry | 1.605
7 K, Small (less than 1 g) adiabatic calorimetry | 1.721
7.13 K, Small (less than 1 g) adiabatic calorimetry | 1.788
7.51 K, Small (less than 1 g) adiabatic calorimetry | 1.987
7.97 K, Small (less than 1 g) adiabatic calorimetry | 2.195
8 K, Small (less than 1 g) adiabatic calorimetry | 2.203
8.43 K, Small (less than 1 g) adiabatic calorimetry | 2.444
8.87 K, Small (less than 1 g) adiabatic calorimetry | 2.627
9 K, Small (less than 1 g) adiabatic calorimetry | 2.719
9.32 K, Small (less than 1 g) adiabatic calorimetry | 2.902
9.77 K, Small (less than 1 g) adiabatic calorimetry | 3.176
10 K, Small (less than 1 g) adiabatic calorimetry | 3.351
10.24 K, Small (less than 1 g) adiabatic calorimetry | 3.492
10.72 K, Small (less than 1 g) adiabatic calorimetry | 3.908
11.23 K, Small (less than 1 g) adiabatic calorimetry | 4.299
11.76 K, Small (less than 1 g) adiabatic calorimetry | 4.756
12.55 K, Small (less than 1 g) adiabatic calorimetry | 5.496
13.09 K, Small (less than 1 g) adiabatic calorimetry | 6.119
13.82 K, Small (less than 1 g) adiabatic calorimetry | 6.826
14.55 K, Small (less than 1 g) adiabatic calorimetry | 7.566
15 K, Small (less than 1 g) adiabatic calorimetry | 8.032
15.28 K, Small (less than 1 g) adiabatic calorimetry | 8.431
16.02 K, Small (less than 1 g) adiabatic calorimetry | 9.146
16.77 K, Small (less than 1 g) adiabatic calorimetry | 9.844
17.78 K, Small (less than 1 g) adiabatic calorimetry | 10.73
18.33 K, Small (less than 1 g) adiabatic calorimetry | 11.31
19.12 K, Small (less than 1 g) adiabatic calorimetry | 12.07
19.94 K, Small (less than 1 g) adiabatic calorimetry | 13.03
20 K, Small (less than 1 g) adiabatic calorimetry | 13.06
21.96 K, Small (less than 1 g) adiabatic calorimetry | 15.22
24.23 K, Small (less than 1 g) adiabatic calorimetry | 17.56
25 K, Small (less than 1 g) adiabatic calorimetry | 18.54
26.66 K, Small (less than 1 g) adiabatic calorimetry | 20.67
29.06 K, Small (less than 1 g) adiabatic calorimetry | 23.5
30 K, Small (less than 1 g) adiabatic calorimetry | 24.62
31.53 K, Small (less than 1 g) adiabatic calorimetry | 26.28
34.01 K, Small (less than 1 g) adiabatic calorimetry | 28.63
35 K, Small (less than 1 g) adiabatic calorimetry | 29.56
36.46 K, Small (less than 1 g) adiabatic calorimetry | 30.81
38.9 K, Small (less than 1 g) adiabatic calorimetry | 33.32
40 K, Small (less than 1 g) adiabatic calorimetry | 34.26
41.34 K, Small (less than 1 g) adiabatic calorimetry | 35.6
43.79 K, Small (less than 1 g) adiabatic calorimetry | 38.06
45 K, Small (less than 1 g) adiabatic calorimetry | 39.07
46.25 K, Small (less than 1 g) adiabatic calorimetry | 40.1
48.71 K, Small (less than 1 g) adiabatic calorimetry | 42.56
50 K, Small (less than 1 g) adiabatic calorimetry | 43.9
51.87 K, Small (less than 1 g) adiabatic calorimetry | 45.56
53.99 K, Small (less than 1 g) adiabatic calorimetry | 47.57
56.52 K, Small (less than 1 g) adiabatic calorimetry | 50.12
58.51 K, Small (less than 1 g) adiabatic calorimetry | 51.87
60 K, Small (less than 1 g) adiabatic calorimetry | 52.93
61.71 K, Small (less than 1 g) adiabatic calorimetry | 54.33
63.47 K, Small (less than 1 g) adiabatic calorimetry | 55.42
67.49 K, Small (less than 1 g) adiabatic calorimetry | 58.66
68.37 K, Small (less than 1 g) adiabatic calorimetry | 59.49
70 K, Small (less than 1 g) adiabatic calorimetry | 60.41
70.84 K, Small (less than 1 g) adiabatic calorimetry | 61.18
73.34 K, Small (less than 1 g) adiabatic calorimetry | 62.62
75.82 K, Small (less than 1 g) adiabatic calorimetry | 64.02
78.29 K, Small (less than 1 g) adiabatic calorimetry | 65.34
80 K, Small (less than 1 g) adiabatic calorimetry | 66.38
80.75 K, Small (less than 1 g) adiabatic calorimetry | 66.68
81.73 K, Small (less than 1 g) adiabatic calorimetry | 67.23
83.21 K, Small (less than 1 g) adiabatic calorimetry | 67.91
85.55 K, Small (less than 1 g) adiabatic calorimetry | 69.26
85.67 K, Small (less than 1 g) adiabatic calorimetry | 69.26
88.13 K, Small (less than 1 g) adiabatic calorimetry | 70.96
88.91 K, Small (less than 1 g) adiabatic calorimetry | 71.04
90 K, Small (less than 1 g) adiabatic calorimetry | 71.65
92.27 K, Small (less than 1 g) adiabatic calorimetry | 73.08
95.63 K, Small (less than 1 g) adiabatic calorimetry | 74.82
98.99 K, Small (less than 1 g) adiabatic calorimetry | 76.75
100 K, Small (less than 1 g) adiabatic calorimetry | 77.58
102.34 K, Small (less than 1 g) adiabatic calorimetry | 78.95
105.7 K, Small (less than 1 g) adiabatic calorimetry | 80.67
109.06 K, Small (less than 1 g) adiabatic calorimetry | 82.69
110 K, Small (less than 1 g) adiabatic calorimetry | 82.93
112.41 K, Small (less than 1 g) adiabatic calorimetry | 84.06
115.76 K, Small (less than 1 g) adiabatic calorimetry | 85.56
119.1 K, Small (less than 1 g) adiabatic calorimetry | 86.8
120 K, Small (less than 1 g) adiabatic calorimetry | 87.3
122.44 K, Small (less than 1 g) adiabatic calorimetry | 88.22
125.78 K, Small (less than 1 g) adiabatic calorimetry | 89.96
129.12 K, Small (less than 1 g) adiabatic calorimetry | 91.04
130 K, Small (less than 1 g) adiabatic calorimetry | 91.38
132.46 K, Small (less than 1 g) adiabatic calorimetry | 92.37
135.8 K, Small (less than 1 g) adiabatic calorimetry | 93.29
139.13 K, Small (less than 1 g) adiabatic calorimetry | 94.95
140 K, Small (less than 1 g) adiabatic calorimetry | 95.37
142.46 K, Small (less than 1 g) adiabatic calorimetry | 96.61
145.78 K, Small (less than 1 g) adiabatic calorimetry | 97.86
149.1 K, Small (less than 1 g) adiabatic calorimetry | 99.03
150 K, Small (less than 1 g) adiabatic calorimetry | 99.52
152.42 K, Small (less than 1 g) adiabatic calorimetry | 100.44
155.74 K, Small (less than 1 g) adiabatic calorimetry | 101.69
159.04 K, Small (less than 1 g) adiabatic calorimetry | 103.27
160 K, Small (less than 1 g) adiabatic calorimetry | 103.68
162.35 K, Small (less than 1 g) adiabatic calorimetry | 104.76
165.65 K, Small (less than 1 g) adiabatic calorimetry | 106.01
168.95 K, Small (less than 1 g) adiabatic calorimetry | 107.84
170 K, Small (less than 1 g) adiabatic calorimetry | 107.84
172.25 K, Small (less than 1 g) adiabatic calorimetry | 108.75
175.54 K, Small (less than 1 g) adiabatic calorimetry | 109.83
178.83 K, Small (less than 1 g) adiabatic calorimetry | 111.5
180 K, Small (less than 1 g) adiabatic calorimetry | 111.83
182.12 K, Small (less than 1 g) adiabatic calorimetry | 112.83
185.4 K, Small (less than 1 g) adiabatic calorimetry | 113.82
188.67 K, Small (less than 1 g) adiabatic calorimetry | 115.24
190 K, Small (less than 1 g) adiabatic calorimetry | 115.4
191.94 K, Small (less than 1 g) adiabatic calorimetry | 116.32
195.21 K, Small (less than 1 g) adiabatic calorimetry | 116.98
198.48 K, Small (less than 1 g) adiabatic calorimetry | 118.07
200 K, Small (less than 1 g) adiabatic calorimetry | 118.73
201.74 K, Small (less than 1 g) adiabatic calorimetry | 119.56
205 K, Small (less than 1 g) adiabatic calorimetry | 120.14
208.27 K, Small (less than 1 g) adiabatic calorimetry | 121.06
210 K, Small (less than 1 g) adiabatic calorimetry | 121.64
211.53 K, Small (less than 1 g) adiabatic calorimetry | 122.14
214.79 K, Small (less than 1 g) adiabatic calorimetry | 122.56
218.05 K, Small (less than 1 g) adiabatic calorimetry | 123.64
220 K, Small (less than 1 g) adiabatic calorimetry | 124.38
221.32 K, Small (less than 1 g) adiabatic calorimetry | 124.22
224.58 K, Small (less than 1 g) adiabatic calorimetry | 125.63
227.84 K, Small (less than 1 g) adiabatic calorimetry | 126.38
230 K, Small (less than 1 g) adiabatic calorimetry | 126.88
231.11 K, Small (less than 1 g) adiabatic calorimetry | 127.13
234.38 K, Small (less than 1 g) adiabatic calorimetry | 128.21
237.64 K, Small (less than 1 g) adiabatic calorimetry | 129.12
240 K, Small (less than 1 g) adiabatic calorimetry | 129.37
240.88 K, Small (less than 1 g) adiabatic calorimetry | 129.62
244.15 K, Small (less than 1 g) adiabatic calorimetry | 130.7
247.41 K, Small (less than 1 g) adiabatic calorimetry | 131.53
250 K, Small (less than 1 g) adiabatic calorimetry | 132.03
250.68 K, Small (less than 1 g) adiabatic calorimetry | 132.28
253.95 K, Small (less than 1 g) adiabatic calorimetry | 133.03
257.21 K, Small (less than 1 g) adiabatic calorimetry | 133.7
260 K, Small (less than 1 g) adiabatic calorimetry | 134.94
260.47 K, Small (less than 1 g) adiabatic calorimetry | 135.11
263.74 K, Small (less than 1 g) adiabatic calorimetry | 135.94
266.99 K, Small (less than 1 g) adiabatic calorimetry | 137.19
270 K, Small (less than 1 g) adiabatic calorimetry | 138.19
270.25 K, Small (less than 1 g) adiabatic calorimetry | 138.69
273.15 K, Small (less than 1 g) adiabatic calorimetry | 139.27
273.51 K, Small (less than 1 g) adiabatic calorimetry | 139.52
276.77 K, Small (less than 1 g) adiabatic calorimetry | 140.43
280 K, Small (less than 1 g) adiabatic calorimetry | 141.68
280.02 K, Small (less than 1 g) adiabatic calorimetry | 141.6
283.26 K, Small (less than 1 g) adiabatic calorimetry | 142.68
286.51 K, Small (less than 1 g) adiabatic calorimetry | 143.84
289.74 K, Small (less than 1 g) adiabatic calorimetry | 145
290 K, Small (less than 1 g) adiabatic calorimetry | 145.42
292.94 K, Small (less than 1 g) adiabatic calorimetry | 146.5
296.16 K, Small (less than 1 g) adiabatic calorimetry | 147.25
298.15 K, Small (less than 1 g) adiabatic calorimetry | 148.41
299.38 K, Small (less than 1 g) adiabatic calorimetry | 148.58
300 K, Small (less than 1 g) adiabatic calorimetry | 149.08
302.59 K, Small (less than 1 g) adiabatic calorimetry | 150.41
305.8 K, Small (less than 1 g) adiabatic calorimetry | 151.41
309.01 K, Small (less than 1 g) adiabatic calorimetry | 152.57
310 K, Small (less than 1 g) adiabatic calorimetry | 152.65
312.23 K, Small (less than 1 g) adiabatic calorimetry | 153.82
315.44 K, Small (less than 1 g) adiabatic calorimetry | 154.82
318.66 K, Small (less than 1 g) adiabatic calorimetry | 155.48
320 K, Small (less than 1 g) adiabatic calorimetry | 155.9
320.8 K, DSC | 155.48
321.8 K, DSC | 156.31
321.9 K, Small (less than 1 g) adiabatic calorimetry | 156.23
322.8 K, DSC | 156.31
323.8 K, DSC | 156.31
324.8 K, DSC | 157.14
325.15 K, Small (less than 1 g) adiabatic calorimetry | 157.39
325.8 K, DSC | 157.14
326.8 K, DSC | 157.97
327.8 K, DSC | 157.97
328.41 K, Small (less than 1 g) adiabatic calorimetry | 158.22
328.8 K, DSC | 158.81
329.8 K, DSC | 158.81
330 K, Small (less than 1 g) adiabatic calorimetry | 158.89
330.8 K, DSC | 159.64
331.69 K, Small (less than 1 g) adiabatic calorimetry | 159.39
331.8 K, DSC | 159.64
332.8 K, DSC | 159.64
333.8 K, DSC | 160.47
334.8 K, DSC | 160.47
334.97 K, Small (less than 1 g) adiabatic calorimetry | 160.3
335.8 K, DSC | 161.3
336.8 K, DSC | 161.3
337.8 K, DSC | 161.3
338.28 K, Small (less than 1 g) adiabatic calorimetry | 161.22
338.8 K, DSC | 162.13
339.8 K, DSC | 162.13
340 K, Small (less than 1 g) adiabatic calorimetry | 161.97
340.8 K, DSC | 162.13
341.58 K, Small (less than 1 g) adiabatic calorimetry | 162.8
341.8 K, DSC | 162.96
342.8 K, DSC | 162.96
343.8 K, DSC | 162.96
